Assay results published in PubChem BioAssay (NCI).
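Tested at 5 concentrations; 48 h exposure; 96-well plates; endpoints linearly interpolated, else capped at highest concentration. At the GI50, growth is halved. TGI: total growth inhibition.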

How the values were obtained:
Assay in all cases: DTP human tumour cell line panel, 48 h; in the data active = GI50 below about 0.43 µM; inactive = the rest
[1] = tested on: 786-0 renal
[2] = tested on: A498 renal
[3] = tested on: A549 NSCLC
[4] = tested on: ACHN renal
[5] = tested on: BT-549 breast
[6] = tested on: CAKI-1 renal
[7] = tested on: CCRF-CEM leukemia
[8] = tested on: COLO 205 colon
[9] = tested on: DU-145 prostate
[10] = tested on: EKVX NSCLC
[11] = tested on: HCC-2998 colon
[12] = tested on: HCT-116 colon
[13] = tested on: HCT-15 colon
[14] = tested on: HL-60(TB) leukemia
[15] = tested on: HOP-62 NSCLC
[16] = tested on: HOP-92 NSCLC
[17] = tested on: HS 578T breast
[18] = tested on: HT29 colon
[19] = tested on: IGROV1 ovarian
[20] = tested on: K-562 leukemia
[21] = tested on: KM12 colon
[22] = tested on: LOX IMVI melanoma
[23] = tested on: M14 melanoma
[24] = tested on: MALME-3M melanoma
[25] = tested on: MCF7 breast
[26] = tested on: MDA-MB-231 breast
[27] = tested on: MDA-MB-435
[28] = tested on: MOLT-4 leukemia
[29] = tested on: NCI-H226 lung
[30] = tested on: NCI-H23 lung
[31] = tested on: NCI-H460 lung
[32] = tested on: NCI-H522 lung
[33] = tested on: NCI/ADR-RES ovarian
[34] = tested on: OVCAR-3 ovarian
[35] = tested on: OVCAR-4 ovarian
[36] = tested on: OVCAR-5 ovarian
[37] = tested on: OVCAR-8 ovarian
[38] = tested on: PC-3 prostate
[39] = tested on: RPMI-8226 leukemia
[40] = tested on: RXF 393 renal
[41] = tested on: SF-268 CNS
[42] = tested on: SF-295 CNS
[43] = tested on: SF-539 CNS
[44] = tested on: SK-MEL-2 melanoma
[45] = tested on: SK-MEL-28 melanoma
[46] = tested on: SK-MEL-5 melanoma
[47] = tested on: SK-OV-3 ovarian
[48] = tested on: SN12C renal
[49] = tested on: SNB-19 CNS
[50] = tested on: SNB-75 CNS
[51] = tested on: SR leukemia
[52] = tested on: SW-620 colon
[53] = tested on: T-47D breast
[54] = tested on: TK-10 renal
[55] = tested on: U251 CNS
[56] = tested on: UACC-62 melanoma
[57] = tested on: UO-31 renal
[58] = tested on: MDA-N
[59] = tested on: UACC-257 melanoma

NNCCc1ccc(NC(=O)CCCc2ccc(C(=O)Nc3ccccc3N)cc2)cc1
40.7 µM: TGI [8]
28.5 µM: TGI [2]
53.9 µM: TGI [40]
> 100 µM: TGI [1] | TGI [3] | TGI [4] | TGI [5] | TGI [6] | TGI [7] | TGI [9] | TGI [10] | TGI [11] | TGI [12] | TGI [13] | TGI [15] | TGI [16] | TGI [17] | TGI [18] | TGI [19] | TGI [20] | TGI [21] | TGI [22] | TGI [23] | TGI [25] | TGI [26] | TGI [27] | TGI [29] | TGI [30] | TGI [31] | TGI [32] | TGI [33] | TGI [34] | TGI [35] | TGI [36] | TGI [37] | TGI [38] | TGI [39] | TGI [41] | TGI [42] | TGI [43] | TGI [44] | TGI [45] | TGI [47] | TGI [48] | TGI [49] | TGI [50] | TGI [51] | TGI [52] | TGI [53] | TGI [54] | TGI [55]
31.8 µM: TGI [56]
53.6 µM: TGI [57]
50.8 µM: TGI [24]
inactive: GI50 [1] 15.7 µM | GI50 [2] 6.54 µM | GI50 [3] 31.9 µM | GI50 [4] 17.7 µM | GI50 [5] 9.5 µM | GI50 [6] 7.99 µM | GI50 [7] 3.35 µM | GI50 [8] 8.48 µM | GI50 [9] 14.5 µM | GI50 [10] 51.1 µM | GI50 [11] 18 µM | GI50 [12] 2.75 µM | GI50 [13] 45.6 µM | GI50 [14] 3.34 µM | GI50 [15] 10.8 µM | GI50 [16] 7.26 µM | GI50 [17] 37.8 µM | GI50 [18] 4.07 µM | GI50 [19] 31 µM | GI50 [20] 3.58 µM | GI50 [21] 29.1 µM | GI50 [22] 15.9 µM | GI50 [23] 15.2 µM | GI50 [24] 2.71 µM | GI50 [25] 6.84 µM | GI50 [26] 17.4 µM | GI50 [27] 9.71 µM | GI50 [28] 3.22 µM | GI50 [29] 16 µM | GI50 [30] 21 µM | GI50 [31] 13.3 µM | GI50 [32] 8.13 µM | GI50 [33] 21.6 µM | GI50 [34] 9.42 µM | GI50 [35] 42.4 µM | GI50 [36] 8.15 µM | GI50 [37] 8.52 µM | GI50 [38] 12 µM | GI50 [39] 3.18 µM | GI50 [40] 12.6 µM | GI50 [41] 5.97 µM | GI50 [42] 13.3 µM | GI50 [43] 9.57 µM | GI50 [44] 7.49 µM | GI50 [45] 12.1 µM | GI50 [46] 6.19 µM | GI50 [47] 18.2 µM | GI50 [48] 28 µM | GI50 [49] 63.1 µM | GI50 [50] 32.8 µM | GI50 [51] 3.24 µM | GI50 [52] 5.77 µM | GI50 [53] 4.34 µM | GI50 [54] 2.03 µM | GI50 [55] 12 µM | GI50 [56] 3.79 µM | GI50 [57] 4.8 µM
21.7 µM: TGI [46]
26.8 µM: TGI [28]
25 µM: TGI [14]

CCC1=NC(C(F)(F)F)(C(F)(F)F)N=C(N2CCOCC2)O1
> 100 µM: TGI [3] | TGI [4] | TGI [6] | TGI [7] | TGI [8] | TGI [9] | TGI [10] | TGI [11] | TGI [12] | TGI [13] | TGI [14] | TGI [16] | TGI [17] | TGI [18] | TGI [19] | TGI [20] | TGI [21] | TGI [22] | TGI [23] | TGI [25] | TGI [26] | TGI [27] | TGI [58] | TGI [28] | TGI [30] | TGI [31] | TGI [32] | TGI [33] | TGI [34] | TGI [35] | TGI [36] | TGI [37] | TGI [38] | TGI [39] | TGI [40] | TGI [41] | TGI [42] | TGI [43] | TGI [44] | TGI [45] | TGI [46] | TGI [47] | TGI [48] | TGI [49] | TGI [50] | TGI [51] | TGI [52] | TGI [53] | TGI [54] | TGI [55] | TGI [59] | TGI [56] | TGI [57]
